From patent US10375962B2, “Heterocycle derivatives as pesticides” (BAYER CROPSCIENCE AKTIENGESELLSCHAFT, priority 2016, dated 2019)
Where two headings read alike, the source gives them in different places.

Key:
[1] = log P by HPLC on a reversed-phase column (C 18), EEC Directive 79/831 Annex V.A8; format: physicochemical; details: for chromatographic logP: reversed-phase HPLC column (C 18)
Excerpt: Called log P (HCOOH) in the table.
Called log P (neutral) in the table.

[2] = tested on: greenhouse red spider mite (Tetranychus urticae); experiment: Tetranychus urticae - spray test, OP-resistant; format: in vivo; details: bean leaf discs, after 6 days
Procedure: (§1) Solvent: 78.0 parts by weight of acetone • • 1.5 parts by weight of dimethylformamide
(§2) Emulsifier: alkylaryl polyglycol ether
(§3) To produce a suitable active compound formulation, 1 part by weight of active compound is dissolved with the stated parts by weight of solvent and made up with water containing an emulsifier concentration of 1000 ppm until the desired concentration is attained. To produce further test concentrations, the formulation is diluted with emulsifier-containing water.
Discs of bean leaves (Phaseolus vulgaris) infested with all stages of the greenhouse red spider mite (Tetranychus urticae) are sprayed with an active compound formulation of the desired concentration.
After 6 days, the efficacy in % is determined. 100% means that all the spider mites have been killed; 0% means that no spider mites have been killed.

[3] = tested on: engorged adult female cattle ticks (Boophilus microplus); experiment: Boophilus microplus - injection test; format: in vivo; details: application rate 20 μg/animal, after 7 days
Procedure: (§4) Solvent: dimethyl sulphoxide
To produce a suitable active compound formulation, 10 mg of active compound are mixed with 0.5 ml of solvent and the concentrate is diluted with solvent to the desired concentration.
1 μl of the active compound solution is injected into the abdomen of 5 engorged adult female cattle ticks (Boophilus microplus). The animals are transferred into dishes and kept in a climate-controlled room.
Efficacy is assessed after 7 days by laying of fertile eggs. Eggs which are not visibly fertile are stored in a climate-controlled cabinet until the larvae hatch after about 42 days. An efficacy of 100% means that none of the ticks has laid any fertile eggs; 0% means that all the eggs are fertile.

[4] = tested on: L1 larvae of the Australian sheep blowfly (Lucilia cuprina); experiment: Lucilia cuprina test; format: in vivo; details: application rate 100 ppm; after 2 days
Procedure: as §4
(§5) To produce a suitable active compound formulation, 10 mg of active compound are mixed with 0.5 ml of dimethyl sulphoxide, and the concentrate is diluted with water to the desired concentration.
About 20 L1 larvae of the Australian sheep blowfly (Lucilia cuprina) are transferred into a test vessel containing minced horsemeat and the active compound formulation of the desired concentration.
After 2 days, the kill in % is determined. 100% means that all the larvae have been killed; 0% means that no larvae have been killed.

[5] = tested on: green peach aphid (Myzus persicae); experiment: Myzus persicae - spray test (Chinese cabbage leaf discs); format: in vivo; details: after 5 days
Procedure: Solvent: 78 parts by weight of acetone • • 1.5 parts by weight of dimethylformamide Emulsifier: alkylaryl polyglycol ether
as §3
Discs of Chinese cabbage leaves (Brassica pekinensis) infested by all stages of the green peach aphid (Myzus persicae) are sprayed with an active compound formulation of the desired concentration.
After 5 days, the efficacy in % is determined. 100% means that all the aphids have been killed and 0% means that none of the aphids have been killed.

[6] = tested on: larvae of the mustard beetle (Phaedon cochleariae); experiment: Phaedon cochleariae - spray test; format: in vivo; details: after 7 days
Procedure: as §1, §2, §3
Discs of Chinese cabbage leaves (Brassica pekinensis) are sprayed with an active compound formulation of the desired concentration and, after drying, populated with larvae of the mustard beetle (Phaedon cochleariae).
After 7 days, the efficacy in % is determined. 100% means that all the beetle larvae have been killed and 0% means that none of the beetle larvae have been killed.

[7] = tested on: caterpillars of the armyworm (Spodoptera frugiperda); experiment: Spodoptera frugiperda - spray test; format: in vivo; details: maize leaf discs, after 7 days
Procedure: Solvent: 78.0 parts by weight of acetone • • 1.5 parts by weight of dimethylformamide Emulsifier: alkylaryl polyglycol ether […] To produce further test concentrations, the formulation is diluted with emulsifier-containing water. Leaf discs of maize (Zea mays) are sprayed with an active compound preparation of the desired concentration and, after drying, populated with caterpillars of the armyworm (Spodoptera frugiperda).

[8] = tested on: unfed adult cat fleas (Ctenocephalides felis); experiment: Ctenocephalides felis - oral test; format: in vivo; details: application rate 100 ppm in citrated cattle blood; after 2 days
Procedure: as §4
For the purpose of production of a suitable active compound formulation, 10 mg of active compound are mixed with 0.5 ml of dimethyl sulphoxide. Dilution with citrated cattle blood gives the desired concentration.
About 20 unfed adult cat fleas (Ctenocephalides felis) are placed into a chamber which is closed at the top and bottom with gauze. A metal cylinder whose bottom end is closed with parafilm is placed onto the chamber. The cylinder contains the blood/active compound formulation, which can be imbibed by the fleas through the parafilm membrane.
After 2 days, the kill in % is determined. 100% means that all of the fleas have been killed; 0% means that none of the fleas have been killed.

[9] = tested on: green peach aphid (Myzus persicae); experiment: Myzus persicae spray test (bell pepper plants); format: in vivo; details: application rate 20 ppm, after 6 days
Procedure: Solvent: 14 parts by weight of dimethylformamide
as §2
as §3, with “water. If the addition of ammonium salts or/and penetrants is required, these are each added in a concentration of 1000 ppm to the formulation solution.” for “water.”
Bell pepper plants (Capsicum annuum) severely infested with the green peach aphid (Myzus persicae) are treated by spraying with the active compound formulation in the desired concentration.
After 6 days, the kill in % is determined. 100% means that all of the aphids have been killed; 0% means that none of the aphids have been killed.

[10] = tested on: adult cat fleas (Ctenocephalides felis); experiment: Ctenocephalides felis - in vitro contact tests with adult cat fleas; format: in vivo; details: application rate 5 μg/cm^2; after 48 h
Procedure: For the coating of the test tubes, 9 mg of active compound are first dissolved in 1 ml of acetone p.a. and then diluted to the desired concentration with acetone p.a. 250 μl of the solution are distributed homogeneously on the inner walls and the base of a 25 ml test tube by turning and rocking on an orbital shaker (rocking rotation at 30 rpm for 2 h). With 900 ppm of active compound solution and internal surface area 44.7 cm^2, given homogeneous distribution, an area-based dose of 5 μg/cm^2 is achieved.
After the solvent has evaporated off, the tubes are populated with 5-10 adult cat fleas (Ctenocephalides felis), sealed with a perforated plastic lid and incubated in a horizontal position at room temperature and ambient humidity. After 48 h, efficacy is determined. To this end, the test tubes are stood upright and the fleas are knocked to the base of the tube. Fleas which remain motionless at the base or move in an uncoordinated manner are considered to be dead or moribund.
100% efficacy means that all the fleas were dead or moribund. 0% efficacy means that no fleas were harmed.

[11] = tested on: adult houseflies (Musca domestica); experiment: Musca domestica test; format: in vivo; details: application rate 100 ppm; after 2 days
Procedure: as §4, §5
Vessels containing a sponge treated with sugar solution and the active compound formulation of the desired concentration are populated with 10 adult houseflies (Musca domestica).
After 2 days, the kill in % is determined. 100% means that all of the flies have been killed; 0% means that none of the flies have been killed.

[12] = acidic range, pH 2.7, 0.1% aqueous formic acid/acetonitrile, 55° C.
[13] = neutral range, pH 7.8, 0.001 molar aqueous ammonium hydrogencarbonate/acetonitrile, 55° C.

| Structure (SMILES) | efficacy (kill) [4] | efficacy ([6]; application rate 500 g/ha) | efficacy ([7]; application rate 100 g/ha) | efficacy ([7]; application rate 500 g/ha) | LOGP_HCOOH (log P (HCOOH)) ([1]; pH 2.7) | LOGP_NEUTRAL (log P (neutral)) ([1]; pH 7.8) | efficacy ([6]; application rate 100 g/ha) | efficacy (kill) [8] | efficacy (fleas dead or moribund) [10] | other results |
| --- | --- | --- | --- | --- | --- | --- | --- | --- | --- | --- |
| CCS(=O)(=O)c1ccc(-n2ncc3ccc(Cl)cc32)nc1-c1nc2cc(C(F)(F)F)ncc2n1C [Example I-2, 2-[6-(6-Chloroindazol-1-yl)-3-ethylsulphonyl-2-pyridyl]-3-methyl-6-(trifluoromethyl)imidazo[4,5-c]pyridine] | – | – | – | – | – | – | – | – | – | chromatographic logP ([1]; acidic range, pH 2.7, 0.1% aqueous formic acid/acetonitrile, 55° C., read-out: LOGP_HCOOH (log P (HCOOH))): 4.01; chromatographic logP ([1]; neutral range, pH 7.8, 0.001 molar aqueous ammonium hydrogencarbonate/acetonitrile, 55° C., read-out: LOGP_NEUTRAL (log P (neutral))): 3.92; efficacy ([2]; application rate 500 g/ha): 70% |
| CCS(=O)(=O)c1ccc(-n2cc3cccc(Cl)c3n2)nc1-c1nc2cc(C(F)(F)F)ncc2n1C [Example I-5] | 100% | 100% | 100% | 100% | – | – | – | – | – | LOGP_HCOOH (log P (HCOOH)) [1, 12]: 3.94; LOGP_NEUTRAL (log P (neutral)) [1, 13]: 3.92; efficacy (laying of fertile eggs) [3]: 80%; efficacy ([5]; application rate 100 g/ha): 70%; efficacy ([5]; application rate 500 g/ha): 90% |
| CCS(=O)(=O)c1ccc(-n2ncc3cnccc32)nc1-c1nc2cc(C(F)(F)F)ncc2n1C [Example I-11] | – | 83% | – | – | – | – | – | – | – | LOGP_HCOOH (log P (HCOOH)) [1, 12]: 1.75; LOGP_NEUTRAL (log P (neutral)) [1, 13]: 2.47; efficacy (laying of fertile eggs) [3]: 90% |
| CCS(=O)(=O)c1ccc(-c2ccc3nn(C)cc3c2)nc1-c1nc2cc(C(F)(F)F)ncc2n1C [Example I-15] | 100% | 100% | – | 100% | 2.62 | 2.58 | 100% | – | – | efficacy ([2]; application rate 500 g/ha): 90% |
| CCS(=O)(=O)c1ccc(-n2cnc3cc(Cl)ccc32)nc1-c1nc2cc(C(F)(F)F)ncc2n1C [Example I-17] | – | 100% | 100% | 100% | 3.19 | 3.12 | 100% | 100% | – | efficacy (kill) [9]: 90% |
| CCS(=O)(=O)c1ccc(N2Cc3ccccc3C2)nc1-c1nc2cc(C(F)(F)F)ncc2n1C [Example I-21] | 100% | 83% | 100% | 100% | 3.59 | 3.63 | – | 90% | 80% | efficacy (kill) [9]: 100% |
| CCS(=O)(=O)c1ccc(N2Cc3cccnc3C2)nc1-c1nc2cc(C(F)(F)F)ncc2n1C [Example I-22] | 100% | 100% | 100% | 100% | – | – | 100% | 100% | 100% | LOGP_HCOOH (log P (HCOOH)) [1, 12]: 2.44; LOGP_NEUTRAL (log P (neutral)) [1, 13]: 2.46; efficacy (kill) [9]: 99% |
| CCS(=O)(=O)c1ccc(-n2cnc3ccccc32)nc1-c1nc2cc(C(F)(F)F)ncc2n1C [Example I-24] | – | 83% | 83% | 100% | 2.66 | 2.64 | – | 95% | 100% | efficacy ([5]; application rate 100 g/ha): 100%; efficacy ([5]; application rate 500 g/ha): 90% |
| CCS(=O)(=O)c1ccc(N2Cc3ccccc3C2=O)nc1-c1nc2cc(C(F)(F)F)ncc2n1C [Example I-31] | 100% | 100% | 100% | 100% | – | – | 100% | – | 100% | LOGP_HCOOH (log P (HCOOH)) [1, 12]: 3.32; LOGP_NEUTRAL (log P (neutral)) [1, 13]: 3.28; efficacy ([2]; application rate 500 g/ha): 90% |
| CCS(=O)(=O)c1ccc(-n2nc3c(Cl)cc(C(F)(F)F)cn3c2=O)nc1-c1nc2cc(C(F)(F)F)ncc2n1C [Example I-32] | 100% | 100% | 83% | 100% | – | 3.39 | 100% | 100% | – | efficacy (kill) [11]: 100% |
| CCS(=O)(=O)c1ccc(N2Cc3ccc(Cl)cc3C2=O)nc1-c1nc2cc(C(F)(F)F)ncc2n1C [Example I-34] | 100% | 100% | 100% | 100% | 3.83 | 3.79 | 100% | 95% | 100% | efficacy (kill) [9]: 100% |
| CCS(=O)(=O)c1ccc(-n2cnc3nc(Cl)ccc32)nc1-c1nc2cc(C(F)(F)F)ncc2n1C [Example I-35] | – | 100% | – | – | – | 2.53 | 83% | 95% | 100% | – |
| CCS(=O)(=O)c1ccc(-n2nnc3ccccc32)nc1-c1nc2cc(C(F)(F)F)ncc2n1C [Example I-39] | – | – | – | – | – | 3.21 | – | – | – | efficacy ([2]; application rate 100 g/ha): 70% |
| CCS(=O)(=O)c1ccc(-n2nc3ccccn3c2=O)nc1-c1nc2cc(C(F)(F)F)ncc2n1C [Example I-43] | – | – | – | – | 2.26 | 2.31 | – | – | – | efficacy ([5]; application rate 100 g/ha): 90%; efficacy ([2]; application rate 100 g/ha): 90% |
